{"source": "patent US20250057837A1", "about": "“Methods for Treating HCV” (priority 2015, published 2025)", "key": {"[1]": {"tested_on": "GT3a NS3 protease replicon Q168R co-selected with Y56H", "assay": "Resistant colony selection, replicon containing GT3a NS3 protease (Q168R+Y56H)", "assay_type": "cell-based, hepatitis C virus"}, "[2]": {"tested_on": "GT1b replicon NS3 A156V variant", "assay": "Resistant colony selection, GT1b subgenomic replicon cells", "assay_type": "cell-based, hepatitis C virus", "settings": "A156V in GT1b"}, "[3]": {"tested_on": "GT3a NS3 protease replicon A156G variant", "assay": "Resistant colony selection, replicon containing GT3a NS3 protease (A156G)", "assay_type": "cell-based, hepatitis C virus", "settings": "A156G alone"}, "[4]": {"tested_on": "resistance-associated variants in GT 1b (Con-1) replicon", "assay": "Activity against resistance-associated variants in GT 1b replicon", "assay_type": "cell-based, hepatitis C virus"}, "[5]": {"tested_on": "resistance-associated variants in GT 1a (H77) replicon", "assay": "Activity against resistance-associated variants in GT 1a replicon", "assay_type": "cell-based, hepatitis C virus"}, "[6]": {"tested_on": "GT1a replicon NS3 A156T variant", "assay": "Resistant colony selection, GT1a subgenomic replicon cells", "assay_type": "cell-based, hepatitis C virus", "settings": "A156T in GT1a"}, "[7]": {"assay_type": "in vivo, human", "settings": "for impact of HCV genotype and RBV coadministration on exposures: GT1-, GT2- or GT3-infected subjects", "excerpt": "Blood samples for pharmacokinetic analysis were collected throughout the study treatment period."}, "[8]": {"assay": "Phase 1 drug-drug interaction with tacrolimus in healthy subjects", "settings": "coadministered with tacrolimus 1 mg"}, "[9]": {"assay": "Phase 1 drug-drug interaction with cyclosporine in healthy subjects", "settings": "coadministered with cyclosporine 100 mg"}, "[10]": {"assay": "Phase 1 single and multiple ascending dose and food effect study of Compound 2 in healthy subjects", "experimental": "This was a blinded, randomized, placebo-controlled Phase 1 study. […] Safety and tolerability were assessed throughout the study."}, "[11]": {"settings": "human, in vivo"}}}
{"molecule": "CC(C)(C)[C@@H]1NC(=O)O[C@@H]2CCC[C@H]2OC/C=C/C(F)(F)c2nc3ccccc3nc2O[C@@H]2C[C@@H](C(=O)N[C@]3(C(=O)NS(=O)(=O)C4(C)CC4)C[C@H]3C(F)F)N(C2)C1=O", "note": "[Compound 1]", "values": [{"measurement": "loss in susceptibility conferred by variant", "setting": "[1]", "value": 1100, "unit": "fold"}, {"measurement": "reduced susceptibility conferred by variant", "setting": "[2]", "value": 1800, "unit": "fold"}, {"measurement": "loss in susceptibility conferred by variant", "setting": "[3]", "value": 1500, "unit": "fold"}, {"measurement": "inhibitory activity against NS3 resistance-associated variants", "setting": "[4]; T54A, R155K, D168V and V170A in GT 1b (Con-1)", "value": "nearly equivalent to that against wild-type HCV replicon"}, {"measurement": "activity against variants at NS3 amino acid positions 155 and 168", "setting": "[4]; common GT1b variants conferring resistance to other HCV protease inhibitors", "value": "retained its activity"}, {"measurement": "activity against NS5A inhibitor and NS5B inhibitor resistance-associated variants", "setting": "[4]; e.g. L28T, Y93H, S282T, C316Y, Y448H and S556G in GT 1b", "value": "potent activity"}, {"measurement": "inhibitory activity against NS3 resistance-associated variants", "setting": "[5]; V36M, R155K, D168A and D168V in GT 1a (H77)", "value": "nearly equivalent to that against wild-type HCV replicon"}, {"measurement": "activity against variants at NS3 amino acid positions 155 and 168", "setting": "[5]; common GT1a variants conferring resistance to other HCV protease inhibitors", "value": "retained its activity"}, {"measurement": "activity against NS5A inhibitor and NS5B inhibitor resistance-associated variants", "setting": "[5]; e.g. M28T, M28V, Q30D, Q30R, Y93C, Y93H, Y93N, L31V+Y93H, C316Y, M414T, Y448C, Y448H, S556G and S559G in GT1a", "value": "potent activity"}, {"measurement": "reduced susceptibility conferred by variant", "setting": "[6]", "value": 1400, "unit": "fold"}, {"measurement": "impact of HCV genotype and RBV coadministration on exposures", "setting": "[7]", "value": "no impact"}, {"measurement": "impact of Compound 2 on Compound 1 exposures", "setting": "[7]; coadministration", "value": "minimal impact"}]}
{"molecule": "COC(=O)N[C@H](C(=O)N1CCC[C@H]1c1nc2cc([C@H]3CC[C@H](c4cc5nc([C@@H]6CCCN6C(=O)[C@@H](NC(=O)OC)[C@@H](C)OC)[nH]c5cc4F)N3c3cc(F)c(N4CCC(c5ccc(F)cc5)CC4)c(F)c3)c(F)cc2[nH]1)[C@@H](C)OC", "note": "[Compound 2]", "values": [{"measurement": "steady-state Cmax, AUC24, and C24 in plasma, change", "setting": "[8]", "value": "≤ 2", "unit": "%"}, {"measurement": "steady-state AUC24 in plasma, increase", "setting": "[9]", "value": 22, "unit": "%"}, {"measurement": "steady-state C24 in plasma, increase", "setting": "[9]", "value": 26, "unit": "%"}, {"measurement": "steady-state Cmax in plasma, increase", "setting": "[9]", "value": 11, "unit": "%"}, {"measurement": "severity of adverse events", "setting": "[10]; SAD 1.5-600 mg, MAD 30-600 mg QD 10 days", "value": "mild"}, {"measurement": "maximum tolerated dose", "setting": "[10]; SAD and MAD portions", "value": "not reached"}, {"measurement": "impact of HCV genotype and RBV coadministration on exposures", "setting": "[7]", "value": "no impact"}]}
{"molecule": "C=CCN1CC[C@]23c4c5ccc(O)c4O[C@H]2C(=O)CC[C@@]3(O)[C@H]1C5", "note": "[naloxone]", "values": [{"measurement": "dose-normalized Cmax and AUCt, change", "setting": "[11]", "value": "≤ 12", "unit": "%"}]}
